Laboratory results: patent US10533032B2, “Crystalline form of benzylbenzene SGLT2 inhibitor” (THERACOS SUB, LLC, priority 2010, dated 2020)
“And” between values parts separate entries of the source, which are not always exact repeats. Equal values may be shown once.

How the values were obtained:
[1] = Hygroscopicity test of crystalline compound 8 powder in desiccators over saturated salt solutions (weight increase, appearance); format: physicochemical; conditions: for Weight Increase, Average: average of 3 samples; for Weight Increase: individual samples 1-3, listed as crystal compound 8
[2] = format: physicochemical
Text: The crystalline compound of the present invention is also characterized by the unit cell data substantially in accordance with FIG. 7. Thermal gravimetric analysis (TGA) can also be used to characterize the crystalline compound of the present invention.

[3] = Hygroscopicity test of crystalline compound 8 powder in desiccators over saturated salt solutions (weight increase, appearance); format: physicochemical; conditions: for Weight Increase: individual samples 1-3, listed as crystal compound 8
Experimental: The tendency toward hygroscopicity of crystalline compound 8 in powder form was tested at 75% and 92.5% relative humidity at 25° C. for up to 10 days. Reagents included: (1) water: in house, MilliQ, 18.2MΩ; (2) NaCl: AR grade; (3) KNO3: AR grade; (4) saturated NaC solution with extra NaCl solid for 25 OC/75% RH control; and (5) saturated KNO3 solution with extra KNO3 solid for 25 OC/92.5% RH control. Equipment used included (1) desiccators, 240 mm ID; and (2) weighing bottles with lids: 50 mm ID×30 mm height. The saturated salt solutions and solids were transferred into individual desiccators, and equilibrated at 25° C. at least overnight to reach the desired relative humidity readings. Four weighing bottles were placed into each desiccator, and equilibrated overnight. The empty weighing bottles were weighed and the tare weights recorded (W1). 0.5 g of crystalline compound 8 was added into three weighing bottles in each desiccator to form a thin layer with thickness of 1-2 mm. The sample weight in each bottle (W2) was recorded. One empty weighing bottle was used for blank calibration. The bottles were left in each desiccator with lids open. The lids were closed and each bottle accurately weighed on days 1, 5 and 10 (W3). The bottles were returned to each desiccator with lids open immediately after weighing. The following formula was used to calculate the weight increase: [formula] WB=the weight increase of empty weighing bottle.

Weight Increase, Average ([1]; 25° C./75% RH, 5 days): 0.1541%
Weight Increase, Average ([1]; 25° C./75% RH, 10 days): 0.2593%
Appearance ([1]; 25° C./75% RH, after 1 day): White powder
Weight Increase, Average ([1]; 25° C./92.5% RH, 1 day): 0.119%
Weight Increase ([1]; 25° C./92.5% RH, 1 day): 0.05362% and 0.1036% and 0.1998%
Weight Increase, Average ([1]; 25° C./92.5% RH, 5 days): 0.1627%
Weight Increase ([1]; 25° C./92.5% RH, 5 days): 0.0417% and 0.2071% and 0.2394%
Weight Increase, Average ([1]; 25° C./92.5% RH, 10 days): 0.2295%
Weight Increase ([1]; 25° C./92.5% RH, 10 days): 0.2601% and 0.1633% and 0.2651%
Appearance ([1]; 25° C./92.5% RH, after 1 day): White powder
Appearance ([1]; 25° C./92.5% RH, after 5 days): White powder
Appearance ([1]; 25° C./92.5% RH, after 10 days): White powder
thermal stability (TGA) [2]: above 200 °C
Weight Increase, Average ([3]; 25° C./75% RH, 1 day, average of 3 samples): 0.2447%
Weight Increase ([3]; 25° C./75% RH, 1 day): 0.3291% and 0.235% and 0.1698%
Weight Increase ([3]; 25° C./75% RH, 5 days): 0.1051% and 0.1995% and 0.1578%
Weight Increase ([3]; 25° C./75% RH, 10 days): 0.3509% and 0.2311% and 0.1957%
Appearance ([3]; 25° C./75% RH, after 5 days): White powder
Appearance ([3]; 25° C./75% RH, after 10 days): White powder
hygroscopicity ([3]; powder form, at the study conditions (75% and 92.5% RH, 25° C., up to 10 days)): low hygroscopicity
weight increases ([3]; powder samples at 75% and 92.5% relative humidity at 25° C. for 10 days): below 0.26%
Structure (SMILES): OC[C@H]1O[C@@H](c2ccc(Cl)c(Cc3ccc(OCCOC4CC4)cc3)c2)[C@H](O)[C@@H](O)[C@@H]1O [crystalline compound 8, (2S,3R,4R,5S,6R)-2-(4-chloro-3-(4-(2-cyclopropoxyethoxy)benzyl)phenyl)-6-(hydroxymethyl)tetrahydro-2H-pyran-3,4,5-triol]
